# Results: US9249102B2 (priority 2012, dated 2016)
# System: Haemonchus contortus
# Experiment: Method A: Haemonchus contortus L1 larvae, microtitre plate screen
# Conditions: 96 h, read-out: motility inhibition
row,SMILES,inhibition at 5 µg/mL
1,"O=C(CO[C@H]1CC[C@H](Nc2ccc([N+](=O)[O-])c(C(F)(F)F)c2)CC1)N1CCN(CCc2cc3cc(C(F)(F)F)ccc3o2)CC1 [Compound 324, 2-[4-[4-nitro-3-(trifluoromethyl)anilino]cyclohexoxy]-1-[4-[2-[5-(trifluoromethyl)benzofuran-2-yl]ethyl]piperazin-1-yl]ethanone]",≥ 90%
2,"N#Cc1ccc(N[C@H]2CC[C@H](OCC(=O)N3CCN(C(=O)C4Cc5cc(Cl)ccc5O4)CC3)CC2)cc1C(F)(F)F (some centres unmarked) [Compound 85, 4-(4-{2-[4-(5-chloro-2,3-dihydro-benzofuran-2-carbonyl)-piperazin-1-yl]-2-oxo-ethoxy}-cyclohexylamino)-2-trifluoromethyl-benzonitrile]",≥ 90%
3,"N#Cc1ccc(N[C@H]2CC[C@H](OCC(=O)N3CCN(Cc4nc5cc(Cl)ccc5o4)CC3)CC2)cc1C(F)(F)F [Compound 288, 2-[(4-[[4-cyano-3-(trifluoromethyl)phenyl]amino]cyclohexyl)-oxy]1-[4-(5-chlorobenzoxazol-2-ylmethyl)piperazin-1-yl]ethan-1-one]",≥ 90%
4,O=C(NCCO[C@H]1CC[C@H](Nc2ccc([N+](=O)[O-])c(C(F)(F)F)c2)CC1)C(=O)Nc1ccc2cc(C(F)(F)F)ccc2c1 [Compound 173],≥ 90%
5,"O=C(COC1CCC(Oc2ccc([N+](=O)[O-])c(C(F)(F)F)c2)CC1)N1CCN(Cc2nc3cc(C(F)(F)F)ccc3s2)CC1 (centres unmarked) [Compound 311, 2-[4-(4-nitro-3-trifluoromethyl-phenoxy)-cyclohexyloxy]-1-[4-(5-trifluoromethyl-benzothiazol-2-ylmethyl)-piperazin-1-yl]-ethanone]",≥ 90%
6,"O=C(CO[C@H]1CC[C@H](Nc2ccc([N+](=O)[O-])c(C(F)(F)F)c2)CC1)N1CCN(c2ccc3cc(Br)ccc3c2)CC1 [Compound 268, 1-[4-(6-bromo-naphthalen-2-yl)-piperazin-1-yl]-2-[4-(4-nitro-3-trifluoromethyl-phenylamino)-cyclohexyloxy]-ethanone]",≥ 90%
7,"O=C(CO[C@H]1CC[C@H](Nc2ccc([N+](=O)[O-])c(C(F)(F)F)c2)CC1)N1CCN(Cc2cc3cc(Cl)cc(Cl)c3o2)CC1 [Compound 319, 2-[(4-[[4-nitro-3-(trifluoromethyl)phenyl]amino]cyclohexyl)-oxy]1-[4-(5,7-dichlorobenzofuran-2-ylmethyl)piperazin-1-yl]ethan-1-one]",≥ 90%
8,"O=C(NCCO[C@H]1CC[C@H](Nc2ccc([N+](=O)[O-])c(C(F)(F)F)c2)CC1)C(=O)Nc1ccc2ccccc2n1 [Compound 238, N^1-(2-(-4-(4-nitro-3-(trifluoromethyl)phenylamino)cyclohexyloxy)ethyl)-N^2-(quinolin-2-yl)oxalamide]",≥ 90%
9,"CC(CN1CCN(c2ccc3cc(F)ccc3c2)CC1)C(=O)N1CCC(Nc2ccc([N+](=O)[O-])c(C(F)(F)F)c2)CC1 (centres unmarked) [Compound 16, 3-[4-(6-fluoronaphthalen-2-yl)piperazin-1-yl]-2-methyl-1-(4-[[4-nitro-3-(trifluoromethyl)phenyl]amino]piperi-din-1-yl)propan-1-one]",≥ 90%
10,"C[C@@H]([C@@H]1Cc2cc(F)ccc2O1)N1CCN(C(=O)COC2CCC(Nc3ccc([N+](=O)[O-])c(C(F)(F)F)c3)CC2)CC1 (relative stereo) [Compound 260-10, 1-(4-((S)-1-((S)-5-fluoro-2,3-dihydrobenzofuran-2-yl)ethyl)piperazin-1-yl)-2-(4-(4-nitro-3-(trifluoromethyl)phenylamino)cyclohexyloxy)ethanone]",≥ 90%
11,O=C(CO[C@H]1CC[C@H](Nc2ccc([N+](=O)[O-])c(C(F)(F)F)c2)CC1)N1CCN(Cc2cc3cc(F)cc(F)c3o2)CC1 [Compound 375],≥ 90%
12,"O=C(COc1ccc(Nc2ccc([N+](=O)[O-])c(C(F)(F)F)c2)cc1)N1CCN(CC2Cc3cc(Cl)ccc3O2)CC1 (centres unmarked) [Compound 68, 1-[4-[(5-chloro-2,3-dihydro-1-benzofuran-2-yl)methyl]piperazin-1-yl]-2-(4-[[4-nitro-3-(trifluoromethyl)phenyl]amino]phenoxy)ethan-1-one]",≥ 90%
13,"O=C(COc1ccc2ccc([N+](=O)[O-])c(C(F)(F)F)c2c1)N1CCN(c2ccc3cc(C(F)(F)F)ccc3n2)CC1 [Compound 131, 2-[[7-nitro-8-(trifluoromethyl)naphthalen-2-yl]oxy]-1-[4-[6-(trifluoromethyl)quinolin-2-yl]piperazin-1-yl]ethan-1-one]",≥ 90%
14,"O=C(CO[C@H]1CC[C@H](Nc2ccc([N+](=O)[O-])c(C(F)(F)F)c2)CC1)N1CCN(Cc2cc3cc(Cl)cc(Br)c3o2)CC1 [Compound 321, 2-[(4-[[4-nitro-3-(trifluoromethyl)phenyl]amino]cyclohexyl)-oxy]1-[4-(5-chloro-7-bromobenzofuran-2-ylmethyl)piperazin-1-yl]ethan-1-one]",≥ 90%
15,"N#Cc1ccc(N[C@H]2CC[C@H](OCC(=O)N3CCN(Cc4oc5ccc(Cl)cc5c4Cl)CC3)CC2)cc1C(F)(F)F [Compound 315, 4-(4-{2-[4-(3,5-dichloro-benzofuran-2-ylmethyl)-piperazin-1-yl]-2-oxo-ethoxy}-cyclohexylamino)-2-trifluoromethyl-benzonitrile]",≥ 90%
16,"O=C(COc1ccc(Nc2ccc([N+](=O)[O-])c(C(F)(F)F)c2)cc1)N1CCN(C(=O)c2cc3cc(C(F)(F)F)ccc3o2)CC1 [Compound 191, 2-(4-[[4-nitro-3-(trifluoromethyl)phenyl]amino]phenoxy)-1-(4-[[5-(trifluoromethyl)-1-benzofuran-2-yl]carbonyl]piperazin-1-yl)ethan-1-one]",≥ 90%
17,"O=C(CO[C@H]1CC[C@H](Nc2ccc([N+](=O)[O-])c(C(F)(F)F)c2)CC1)N1CCN(Cc2cc3c(Cl)cc(Cl)cc3o2)CC1 [Compound 318, 2-[(4-[[4-nitro-3-(trifluoromethyl)phenyl]amino]cyclohexyl)-oxy]1-[4-(4,6-dichlorobenzofuran-2-ylmethyl)piperazin-1-yl]ethan-1-one]",≥ 90%
18,"CN(c1ccc(C#N)c(C(F)(F)F)c1)[C@H]1CC[C@H](OCC(=O)N2CCN(c3ccc4cc(F)ccc4c3)CC2)CC1 [Compound 293, 4-[(4-{2-[4-(6-fluoro-naphthalen-2-yl)-piperazin-1-yl]-2-oxo-ethoxy}-cyclohexyl)-methyl-amino]-2-trifluoromethyl-benzonitrile]",≥ 90%
19,"N#Cc1ccc(N[C@H]2CC[C@H](OCC(=O)N3CCN(c4nc5cc(C(F)(F)F)ccc5s4)CC3)CC2)cc1C(F)(F)F [Compound 358, 4-(4-{2-oxo-2-[4-(5-trifluoromethyl-benzothiazol-2-yl)-piperazin-1-yl]-ethoxy}-cyclohexylamino)-2-trifluoromethyl-benzonitrile]",≥ 90%
20,"CN(c1ccc(C#N)c(C(F)(F)F)c1)[C@H]1CC[C@H](OCC(=O)N2CCN(CC3Cc4cc(F)ccc4O3)CC2)CC1 (some centres unmarked) [Compound 280, 4-[(4-{2-[4-(5-fluoro-2,3-dihydro-benzofuran-2-ylmethyl)-piperazin-1-yl]-2-oxo-ethoxy}-cyclohexyl)-methyl-amino]-2-trifluoromethyl-benzonitrile]",≥ 90%
